Test results: patent US12558428B2, “Heterobifunctional compounds and their use in treating disease” (Halda Therapeutics OpCo, Inc., priority 2024, dated 2026)
Where two headings read alike, the source gives them in different places.

Experiments:
Format in all cases: cell-based
[1] = test system: T-Rex 293 cells lacking increased expression of estrogen receptor alpha protein; experiment: Cellular growth inhibition assay, T-Rex 293 cells, (−) doxycycline; conditions: 72 hours
Outline: (§1)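 Growth of a doxycycline-inducible ERα T-Rex 293 clone, induced or not with 3 ng/mL doxycycline, was followed for 72 h with test compound in hormone-depleted medium. CellTiter-Glo luminescence gave GI50.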

[2] = test system: MCF7 cells (ATCC #HTB-22); experiment: Cellular growth inhibition assay, MCF7 cells purchased from ATCC; conditions: Table 8-A, MCF7 cells purchased from ATCC, six days, CellTiter-Glo, read-out: GI50
Outline: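 GI50 values come from a four-parameter fit of CellTiter-Glo 2.0 luminescence after six days of compound exposure at 37° C. Seeding density depended on the source: 225 cells/well for ECACC MCF7, 1,500 for ATCC. Medium was RPMI 1640 with 10% FBS and 0.2 U/ml insulin.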

[3] = test system: T-Rex 293 cells having increased expression of estrogen receptor alpha protein; experiment: Cellular growth inhibition assay, T-Rex 293 cells, (+) doxycycline; conditions: 72 hours
Outline: as §1

[4] = T-REx-293, 72 h, T-Rex 293 cells without doxycycline, CellTiter-Glo 2.0, read-out: (−) Dox TRex ERa (GI50)
[5] = T-REx-293, 72 h, T-Rex 293 cells with doxycycline-induced ERα expression, CellTiter-Glo 2.0, read-out: (+) Dox TRex ERa (GI50)
[6] = T-REx-293, 72 h, Table 7-A, T-Rex 293 cells without doxycycline (lacking increased ERα expression), CellTiter-Glo, read-out: (−) Dox GI50
[7] = T-REx-293, 72 h, Table 7-A, T-Rex 293 cells with doxycycline (increased ERα expression), CellTiter-Glo, read-out: (+) Dox GI50

Compound | GI50 [1, 4] [nM] | GI50 ([2]; Homo sapiens, MCF7, 144 h) [nM] | GI50 [3, 5] [nM] | GI50 [1, 6] [nM] | GI50 [3, 7] [nM] | GI50 ([1]; Table 7-A, T-Rex 293 cells without doxycycline (lacking increased ERα expression), CellTiter-Glo, read-out: (−) Dox GI50) [nM] | GI50 [2] [nM] | GI50 ([3]; Table 7-A, T-Rex 293 cells with doxycycline (increased ERα expression), CellTiter-Glo, read-out: (+) Dox GI50) [nM]
Cc1sc2c(c1C)C(c1ccc(OCCOCCOCCOc3cc(F)c([C@@H]4c5[nH]c6ccccc6c5C[C@@H](C)N4CC(C)(C)F)c(F)c3)cc1)=N[C@@H](C)c1nnc(C)n1-2 [I-25, (S)-4-(4-(2-(2-(2-(3,5-difluoro-4-((1R,3R)-2-(2-fluoro-2-methylpropyl)-3-methyl-2,3,4,9-tetrahydro-1H-pyrido[3,4-b]indol-1-yl)phenoxy)ethoxy)ethoxy)ethoxy)phenyl)-2,3,6,9-tetramethyl-6H-thieno[3,2-f][1,2,4]triazolo[4,3-a][1,4]diazepine] | 50 to 500 | < 50 | 50 to 500 | – | – | – | – | –
Cc1sc2c(c1C)C(c1ccc(N3CCC(CN4CCN(c5ccc([C@@H]6c7ccc8n[nH]cc8c7C[C@@H](C)N6CC(F)(F)F)nc5)CC4)CC3)cc1)=N[C@@H](C)c1nnc(C)n1-2 [I-27, (S)-2,3,6,9-tetramethyl-4-(4-(4-((4-(6-((6S,8R)-8-methyl-7-(2,2,2-trifluoroethyl)-6,7,8,9-tetrahydro-2H-pyrazolo[4,3-f]isoquinolin-6-yl)pyridin-3-yl)piperazin-1-yl)methyl)piperidin-1-yl)phenyl)-6H-thieno[3,2-f][1,2,4]triazolo[4,3-a][1,4]diazepine] | 500 to 2500 | 50 to 500 | < 50 | – | – | – | – | –
Cc1sc2c(c1C)C(c1ccc(Cl)cc1)=N[C@@H](CC(=O)NCCCCOCCOc1ccc(C(=O)c3c(-c4ccc(Br)cc4)sc4cc(O)ccc34)cc1)c1nnc(C)n1-2 [I-28, (S)—N-(4-(2-(4-(2-(4-bromophenyl)-6-hydroxybenzo[b]thiophene-3-carbonyl)phenoxy)ethoxy)butyl)-2-(4-(4-chlorophenyl)-2,3,9-trimethyl-6H-thieno[3,2-f][1,2,4]triazolo[4,3-a][1,4]diazepin-6-yl)acetamide] | 500 to 2500 | 50 to 500 | 50 to 500 | – | – | – | – | –
Cc1sc2c(c1C)C(c1ccc(C#CC3CC4(CCN(CCOc5ccc(C(=O)c6c(-c7ccc(O)cc7)sc7cc(O)ccc67)cc5)CC4)C3)cc1)=N[C@@H](C)c1nnc(C)n1-2 [I-29, (S)-(6-hydroxy-2-(4-hydroxyphenyl)benzo[b]thiophen-3-yl)(4-(2-(2-((4-(2,3,6,9-tetramethyl-6H-thieno[3,2-f][1,2,4]triazolo[4,3-a][1,4]diazepin-4-yl)phenyl)ethynyl)-7-azaspiro[3.5]nonan-7-yl)ethoxy)phenyl)methanone] | < 50 | < 50 | < 50 | – | – | – | – | –
Cc1sc2c(c1C)C(c1ccc(CC3CC4(CCN(CCOc5ccc(C(=O)c6c(-c7ccc(O)cc7)sc7cc(O)ccc67)cc5)CC4)C3)cc1)=N[C@@H](Cc1ncco1)c1nnc(C)n1-2 [I-30, (S)-(6-hydroxy-2-(4-hydroxyphenyl)benzo[b]thiophen-3-yl)(4-(2-(2-(4-(2,3,9-trimethyl-6-(oxazol-2-ylmethyl)-6H-thieno[3,2-f][1,2,4]triazolo[4,3-a][1,4]diazepin-4-yl)benzyl)-7-azaspiro[3.5]nonan-7-yl)ethoxy)phenyl)methanone] | < 50 | < 50 | < 50 | – | – | – | – | –
Cn1cc(-c2cc(C(C)(C)O)ccc2Oc2ccc(C#CC3CC4(CCN(CCOc5ccc(C(=O)c6c(-c7ccc(O)cc7)sc7cc(O)ccc67)cc5)CC4)C3)cc2)c2cc[nH]c2c1=O [I-31, 4-(2-(4-((7-(2-(4-(6-hydroxy-2-(4-hydroxyphenyl)benzo [b]thiophene-3-carbonyl)phenoxy)ethyl)-7-azaspiro[3.5]nonan-2-yl)ethynyl)phenoxy)-5-(2-hydroxypropan-2-yl)phenyl)-6-methyl-1,6-dihydro-7H-pyrrolo[2,3-c]pyridin-7-one] | 50 to 500 | < 50 | < 50 | – | – | – | – | –
Cc1sc2c(c1C)C(c1ccc(OCCOCCCN3CC[C@H](Oc4ccc(C5=C(c6ccc(Cl)cc6Cl)CCCc6cc(C(=O)O)ccc65)cc4)C3)cc1)=N[C@@H](C)c1nnc(C)n1-2 [I-32, 8-(2,4-dichlorophenyl)-9-(4-(((S)-1-(3-(2-(4-((S)-2,3,6,9-tetramethyl-6H-thieno[3,2-f][1,2,4]triazolo[4,3-a][1,4]diazepin-4-yl)phenoxy)ethoxy)propyl)pyrrolidin-3-yl)oxy)phenyl)-6,7-dihydro-5H-benzo[7]annulene-3-carboxylic acid] | 500 to 2500 | 50 to 500 | < 50 | – | – | – | – | –
Cc1sc2c(c1C)C(c1ccc(OCCOCCOCCCN3CC(Nc4ccc([C@@H]5c6ccc7n[nH]cc7c6C[C@@H](C)N5CC(F)(F)F)nc4)C3)cc1)=N[C@@H](C)c1nnc(C)n1-2 [I-33, 6-((6S,8R)-8-methyl-7-(2,2,2-trifluoroethyl)-6,7,8,9-tetrahydro-2H-pyrazolo[4,3-f]isoquinolin-6-yl)-N-(1-(3-(2-(2-(4-((S)-2,3,6,9-tetramethyl-6H-thieno[3,2-f][1,2,4]triazolo[4,3-a][1,4]diazepin-4-yl)phenoxy)ethoxy)ethoxy)propyl)azetidin-3-yl)pyridin-3-amine] | > 2500 | < 50 | < 50 | – | – | – | – | –
CCN(Cc1ccc(CCN2CC[C@@H](OCCOCCOc3ccc(C4=N[C@@H](C)c5nnc(C)n5-c5sc(C)c(C)c54)cc3)C2)cc1)c1cc(OC)ccc1C1CCc2cc(O)ccc2C1 (stereo partly drawn) [I-34a, (R)-6-(2-(ethyl(4-(2-((R)-3-(2-(2-(4-((S)-2,3,6,9-tetramethyl-6H-thieno[3,2-f][1,2,4]triazolo[4,3-a][1,4]diazepin-4-yl)phenoxy)ethoxy)ethoxy)pyrrolidin-1-yl)ethyl)benzyl)amino)-4-methoxyphenyl)-5,6,7,8-tetrahydronaphthalen-2-ol] | – | 50 to 500 | – | 500 to 2500 | 50 to 500 | – | – | –
CCN(Cc1ccc(CCN2CC[C@@H](OCCOCCOc3ccc(C4=N[C@@H](C)c5nnc(C)n5-c5sc(C)c(C)c54)cc3)C2)cc1)c1cc(OC)ccc1C1CCc2cc(O)ccc2C1 (stereo partly drawn) [I-34b, (S)-6-(2-(ethyl(4-(2-((R)-3-(2-(2-(4-((S)-2,3,6,9-tetramethyl-6H-thieno[3,2-f][1,2,4]triazolo[4,3-a][1,4]diazepin-4-yl)phenoxy)ethoxy)ethoxy)pyrrolidin-1-yl)ethyl)benzyl)amino)-4-methoxyphenyl)-5,6,7,8-tetrahydronaphthalen-2-ol] | – | – | – | – | – | 500 to 2500 | 50 to 500 | < 50
Cn1cc(-c2cc(C(C)(C)O)ccc2Oc2ccc(N3CCC4(CCN(CCOc5ccc(C(=O)c6c(-c7ccc(O)cc7)sc7cc(O)ccc67)cc5)CC4)C3)cc2)c2cc[nH]c2c1=O [I-35, 4-(2-(4-(8-(2-(4-(6-hydroxy-2-(4-hydroxyphenyl)benzo[b]thiophene-3-carbonyl)phenoxy)ethyl)-2,8-diazaspiro[4.5]decan-2-yl)phenoxy)-5-(2-hydroxypropan-2-yl)phenyl)-6-methyl-1,6-dihydro-7H-pyrrolo[2,3-c]pyridin-7-one] | < 50 | < 50 | < 50 | – | – | – | – | –
Cc1sc2c(c1C)C(c1ccc(OCCOCCCN3CC[C@H](Oc4ccc(C5=C(c6ccc(Cl)cc6Cl)CCCc6cc(O)ccc65)cc4)C3)cc1)=N[C@@H](C)c1nnc(C)n1-2 [I-36, 8-(2,4-dichlorophenyl)-9-(4-(((S)-1-(3-(2-(4-((S)-2,3,6,9-tetramethyl-6H-thieno[3,2-f][1,2,4]triazolo[4,3-a][1,4]diazepin-4-yl)phenoxy)ethoxy)propyl)pyrrolidin-3-yl)oxy)phenyl)-6,7-dihydro-5H-benzo[7]annulen-3-ol] | 500 to 2500 | 500 to 2500 | 500 to 2500 | – | – | – | – | –
Cc1sc2c(c1C)C(c1ccc(CC3CC4(CCCN(c5ccc([C@@H]6c7ccc(O)cc7CC[C@@H]6c6ccccc6)cc5)C4)C3)cc1)=N[C@@H](C)c1nnc(C)n1-2 (stereo partly drawn) [I-44] | – | 500 to 2500 | – | 500 to 2500 | 50 to 500 | – | – | –
Cc1sc2c(c1C)C(c1ccc(C#CC3CC4(CCN(c5ccc([C@@H]6c7ccc(O)cc7CC[C@@H]6c6ccccc6)cc5)CC4)C3)cc1)=N[C@@H](Cc1ncco1)c1nnc(C)n1-2 [I-46] | – | 50 to 500 | – | > 2500 | < 50 | – | – | –
Cc1sc2c(c1C)C(c1ccc(C#CC3CC4(CCN(c5ccc([C@@H]6c7ccc(O)cc7CC[C@@H]6c6ccccc6)cc5)CC4)C3)cc1)=N[C@@H](C)c1nnc(C)n1-2 [I-47] | – | 500 to 2500 | – | > 2500 | 50 to 500 | – | – | –
Cc1sc2c(c1C)C(c1ccc(OCCOCCCN3CC(Nc4ccc([C@@H]5c6ccc7n[nH]cc7c6C[C@@H](C)N5CC(F)(F)F)nc4)C3)cc1)=N[C@@H](C)c1nnc(C)n1-2 [I-57] | – | < 50 | – | 500 to 2500 | < 50 | – | – | –
CC1=C(c2c(F)cc(F)cc2F)[C@H](c2ccc(OCCN3CC(COCCOc4ccc(C5=N[C@@H](C)c6nnc(C)n6-c6sc(C)c(C)c65)cc4)C3)cc2)Oc2ccc(O)cc21 [I-59] | – | 50 to 500 | – | 500 to 2500 | 50 to 500 | – | – | –
CC1=C(c2ccc(O)cc2)[C@H](c2ccc(OCCN3CC[C@@H](OCCOCCOc4ccc(C5=N[C@@H](C)c6nnc(C)n6-c6sc(C)c(C)c65)cc4)C3)cc2)Oc2cc(O)ccc21 [I-60] | – | 50 to 500 | – | 500 to 2500 | 50 to 500 | – | – | –
